Data published in patent US9617214B2, “Compounds for cognitive enhancement and methods of use thereof” (The Translational Genomics Research Institute, priority 2013, dated 2017).
Entries after “also recorded” stand apart in the source; their conditions may differ. Where two headings read alike, the source gives them in different places.

Key:
ROCK1 [1] = target: T1, ROCK1 (Homo sapiens, UniProt Q13464); assay: ROCK1 enzyme activity at 10 μM; assay type: biochemical; conditions: 10 μM compound
Procedure: (§1) Enzyme activity of ROCK1 and ROCK2 were studied at 10 μM to compare the inhibition activity of ROCK inhibitors. Table 2 summarizes the extent of inhibition of the compounds of the inventions.

ROCK2 [2] = target: T2, ROCK2 (Homo sapiens, UniProt O75116); assay: ROCK2 enzyme activity at 10 μM; assay type: biochemical; conditions: 10 μM compound
T2 sequence (O75116 whole entry): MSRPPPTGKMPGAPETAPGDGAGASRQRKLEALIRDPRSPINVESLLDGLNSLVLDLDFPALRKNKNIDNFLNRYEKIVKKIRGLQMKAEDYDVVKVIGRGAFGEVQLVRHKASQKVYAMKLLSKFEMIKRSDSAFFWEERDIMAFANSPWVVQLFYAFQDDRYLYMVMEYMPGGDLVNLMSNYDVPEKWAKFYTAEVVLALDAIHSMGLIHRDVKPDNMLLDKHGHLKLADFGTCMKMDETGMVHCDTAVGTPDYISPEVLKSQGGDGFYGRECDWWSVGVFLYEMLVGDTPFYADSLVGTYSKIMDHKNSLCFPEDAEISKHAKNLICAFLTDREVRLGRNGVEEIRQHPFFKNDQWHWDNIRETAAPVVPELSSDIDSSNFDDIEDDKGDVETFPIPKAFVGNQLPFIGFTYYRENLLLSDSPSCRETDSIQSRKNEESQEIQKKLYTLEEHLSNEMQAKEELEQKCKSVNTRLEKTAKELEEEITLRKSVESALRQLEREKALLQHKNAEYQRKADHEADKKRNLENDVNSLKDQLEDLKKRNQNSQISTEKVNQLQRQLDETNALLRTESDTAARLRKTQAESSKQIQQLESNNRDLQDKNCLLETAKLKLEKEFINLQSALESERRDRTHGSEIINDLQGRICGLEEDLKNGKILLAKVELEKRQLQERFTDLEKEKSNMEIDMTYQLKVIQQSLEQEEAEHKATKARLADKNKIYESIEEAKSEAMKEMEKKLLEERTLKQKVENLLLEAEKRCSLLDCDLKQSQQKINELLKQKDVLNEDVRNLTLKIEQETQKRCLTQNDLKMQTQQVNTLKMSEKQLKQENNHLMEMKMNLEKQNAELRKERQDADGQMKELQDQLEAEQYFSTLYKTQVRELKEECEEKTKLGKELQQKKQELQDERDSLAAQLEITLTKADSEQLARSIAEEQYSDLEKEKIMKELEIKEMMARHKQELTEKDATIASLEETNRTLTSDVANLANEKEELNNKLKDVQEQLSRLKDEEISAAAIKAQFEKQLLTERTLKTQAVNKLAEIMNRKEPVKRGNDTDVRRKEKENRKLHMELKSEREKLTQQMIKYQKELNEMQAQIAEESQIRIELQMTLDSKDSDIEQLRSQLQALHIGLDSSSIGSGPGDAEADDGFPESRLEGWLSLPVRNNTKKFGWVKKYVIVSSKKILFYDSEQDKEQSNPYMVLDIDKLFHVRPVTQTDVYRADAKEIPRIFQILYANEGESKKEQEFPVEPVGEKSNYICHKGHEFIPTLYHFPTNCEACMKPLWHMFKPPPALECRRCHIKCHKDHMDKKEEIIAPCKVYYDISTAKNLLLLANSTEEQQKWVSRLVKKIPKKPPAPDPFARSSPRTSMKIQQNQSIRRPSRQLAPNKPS
Procedure: as §1

Aβ42 = conditions: mouse model of AD; cited from earlier work
rats [3] = conditions: cited from earlier work
H4-tau cells [4] = assay: Validation time course in H4-tau cells at IC50 (cell survival) dosage: p-tau and total tau protein by ELISA; assay type: cell-based, human; conditions: IC50 dosage for cell survival, over 96 hours; for concentration of total tau protein: FIG. 2; for concentration of p-tau protein: FIG. 3
Procedure: The time course was repeated using 4 biological replicates over 96 hours and 10 time points (at hours 0, 6, 12, 24, 36, 48, 60, 72, 84, and 96). Total cell protein was collected at each time point and ELISAs were used to measure p-tau protein and total tau protein.

rats [5] = conditions: aged rats; cited from earlier work
H4-tau cells [6] = assay: p-tau protein to total tau protein ratio in H4-tau cells at IC10 dosage, 96-hour time course, ELISA; assay type: cell-based, human; conditions: 96-hour time course, compared to vehicle (DMSO), two-sided t-test
Procedure: Thirteen different ROCK inhibitors were tested for their effect on the ratio of p-tau protein to total tau protein. […] Alamar Blue was used after cells were treated with the respective compounds at various dosages to determine the IC10 value. The compounds were applied to H4-tau cells over a 96-hour time course with 8 time points (at hours 12, 24, 36, 48, 60, 72, 84, and 96). At each time point, total cell protein was collected and p-tau protein and total tau protein was assessed using an enzyme-linked immunosorbent assay. The p-tau to total tau protein ratio at each time point for each drug was compared to the corresponding time point for cells treated with vehicle (DMSO) used to solubilize the respective compound.
Two-sided t-tests were used to determine significant changes in the p-tau protein to total tau protein ratio for each drug across the entire time course at each tested time point. Cells treated by drug were compared to cells treated to vehicle.

ROCK1 [7] = target: T1, ROCK1; assay: IC50 value for ROCK1 activity; assay type: biochemical; conditions: ATP at Km (10 μM)
ROCK2 [8] = target: T2, ROCK2; assay: IC50 value for ROCK2 activity; assay type: biochemical; conditions: ATP at Km (10 μM)
[9] = Test 1, read-out: % enzyme activity at 10 μM ROCK1 Test 1
[10] = Test 2, read-out: % enzyme activity at 10 μM ROCK1 Test 2
[11] = Test 1, read-out: % enzyme activity at 10 μM ROCK2 Test 1
[12] = Test 2, read-out: % enzyme activity at 10 μM ROCK2 Test 2

T1 sequence (Q13464 whole entry): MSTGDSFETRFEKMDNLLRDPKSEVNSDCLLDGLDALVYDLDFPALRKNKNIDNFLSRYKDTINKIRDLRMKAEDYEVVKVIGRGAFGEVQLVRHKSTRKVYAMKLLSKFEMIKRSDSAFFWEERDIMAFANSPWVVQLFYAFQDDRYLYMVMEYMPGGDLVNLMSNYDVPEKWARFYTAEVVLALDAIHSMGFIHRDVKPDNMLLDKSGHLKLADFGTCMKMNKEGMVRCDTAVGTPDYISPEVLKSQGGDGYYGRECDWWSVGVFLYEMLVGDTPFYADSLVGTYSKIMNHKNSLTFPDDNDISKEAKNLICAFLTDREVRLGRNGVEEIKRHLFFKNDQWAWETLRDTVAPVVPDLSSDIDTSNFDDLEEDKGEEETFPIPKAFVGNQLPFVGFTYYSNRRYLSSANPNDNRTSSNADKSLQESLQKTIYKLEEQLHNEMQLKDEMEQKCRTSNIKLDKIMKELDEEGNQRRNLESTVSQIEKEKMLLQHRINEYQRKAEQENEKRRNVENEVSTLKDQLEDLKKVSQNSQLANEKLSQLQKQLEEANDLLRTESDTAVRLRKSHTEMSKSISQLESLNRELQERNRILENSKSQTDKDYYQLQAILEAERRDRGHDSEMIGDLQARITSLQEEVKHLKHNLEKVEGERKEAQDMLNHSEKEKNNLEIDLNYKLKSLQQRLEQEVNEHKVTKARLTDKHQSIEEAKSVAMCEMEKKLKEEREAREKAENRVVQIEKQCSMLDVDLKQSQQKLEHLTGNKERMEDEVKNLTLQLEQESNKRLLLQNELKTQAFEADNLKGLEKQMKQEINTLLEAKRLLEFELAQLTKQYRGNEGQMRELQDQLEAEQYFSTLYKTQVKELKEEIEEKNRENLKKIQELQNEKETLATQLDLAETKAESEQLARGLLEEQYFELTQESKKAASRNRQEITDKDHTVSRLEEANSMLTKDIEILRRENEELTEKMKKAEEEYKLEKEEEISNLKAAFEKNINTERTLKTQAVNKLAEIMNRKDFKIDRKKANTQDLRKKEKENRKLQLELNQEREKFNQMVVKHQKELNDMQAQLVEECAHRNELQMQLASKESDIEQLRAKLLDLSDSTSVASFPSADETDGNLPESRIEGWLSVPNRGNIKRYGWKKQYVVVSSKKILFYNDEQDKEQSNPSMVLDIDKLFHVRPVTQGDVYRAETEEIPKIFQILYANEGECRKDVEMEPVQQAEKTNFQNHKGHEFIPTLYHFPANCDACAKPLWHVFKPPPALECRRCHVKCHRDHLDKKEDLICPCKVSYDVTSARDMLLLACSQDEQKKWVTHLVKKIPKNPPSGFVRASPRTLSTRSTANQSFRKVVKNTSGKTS

| remaining activity at 10 µM (ROCK1 [1]; [9]) [%] | remaining activity at 10 µM (ROCK1 [1]; [10]) [%] | remaining activity at 10 µM (ROCK2 [2]; [11]) [%] | remaining activity at 10 µM (ROCK2 [2]; [12]) [%] | Structure (SMILES) | p-tau protein to total tau protein ratio (H4-tau cells [6]) | further results |
| --- | --- | --- | --- | --- | --- | --- |
| 0.97 | 2.38 | – | – | O=C(Nc1ccc(-c2cn[nH]c2)cc1)C1COc2ccccc2C1 (stereo not shown) [Compound T299] | – | – |
| 3.26 | 2.65 | 0.78 | 0.55 | O=C(Nc1cccc(-c2ccncc2)c1)C1COc2ccccc2C1 (stereo not shown) [Compound T303] | significant decrease | – |

The next lines start with the compound.

| Structure (SMILES) | remaining activity at 10 µM (ROCK1 [1]; [9]) [%] | remaining activity at 10 µM (ROCK1 [1]; [10]) [%] | remaining activity at 10 µM (ROCK2 [2]; [11]) [%] | remaining activity at 10 µM (ROCK2 [2]; [12]) [%] | p-tau protein to total tau protein ratio (H4-tau cells [6]) | further results |
| --- | --- | --- | --- | --- | --- | --- |
| O=S(=O)(c1cccc2cnccc12)N1CCCN(Cc2ccc(F)cc2)CC1 [Compound T306] | 6.75 | 6.94 | 3.85 | 3.62 | – | – |
| CC(N)C1CCC(C(=O)Nc2ccncc2)CC1 (stereo not shown) [Compound Y27632, 4-(1-aminoethyl)-N-pyridin-4-yl-cyclohexane-1-carboxamide] | – | – | – | – | – | brain levels of Aβ42 (Aβ42): preferentially lowered; memory and learning (rats [3]; rats with ischemia): increased; hyperphosphorylation of the tau protein (rats [3]; rats, hyperphosphorylation due to ischemia): decreased; memory and learning (rats [3]; sham rats, no hyperphosphorylation of the tau protein): decreased |
| O=S(=O)(c1cccc2cnccc12)N1CCCNCC1 [Fasudil, 5-(1,4-diazepan-1-ylsulfonyl)isoquinoline, reference compound] | – | – | – | – | – | concentration of total tau protein (H4-tau cells [4]): lesser concentrations; concentration of p-tau protein (H4-tau cells [4]): lesser concentrations; learning and memory (rats [5]): increased |
| CC(Cc1ccc(F)cc1)NC(=O)c1ccc(-c2ccncc2)cc1 (stereo not shown) [Compound T350] | – | – | – | – | significant decrease | – |
| O=C(NCCc1cccc(Cl)c1)c1ccc(-c2ccncc2)cc1 [Compound T343] | 1.22 | 1.17 | 0.08 | 0.56 | significant decrease | p-tau protein to total tau protein ratio (H4-tau cells [4]; 4 biological replicates, FIG. 4): significant decrease; also recorded: decreased ratio; concentration of total tau protein (H4-tau cells [4]): lesser concentrations; concentration of p-tau protein (H4-tau cells [4]): lesser concentrations; IC50 (ROCK1 [7]; Test 1, read-out: IC50 (μM) ROCK1 Test 1): 0.0318 µM; IC50 (ROCK1 [7]; Test 2, read-out: IC50 (μM) ROCK1 Test 2): 0.0227 µM; IC50 (ROCK2 [8]; Test 1, read-out: IC50 (μM) ROCK2 Test 1): 0.0167 µM; IC50 (ROCK2 [8]; Test 2, read-out: IC50 (μM) ROCK2 Test 2): 0.0102 µM |
